Laboratory results taken from patent publication US11492335B2, “Aryl or heteroaryl triazolone derivatives or salts thereof, or pharmaceutical compositions comprising the same” (YUHAN CORPORATION, priority 2018, dated 2022).
Like-named read-outs stand apart in the source and are kept apart here.

Legend:
Type in all cases: biochemical
[1] = molecular target: T1, recombinant human DAO (diamine oxidase) (Homo sapiens, UniProt P19801); assay: Activity on recombinant human DAO, Amplex Red method, 1 mM putrescine substrate; settings: recombinant human DAO; for IC50: read-out: Inhibitory Activity (IC50, nM) DAO
T1 construct: purchased R&D systems
T1 sequence (P19801 20-751): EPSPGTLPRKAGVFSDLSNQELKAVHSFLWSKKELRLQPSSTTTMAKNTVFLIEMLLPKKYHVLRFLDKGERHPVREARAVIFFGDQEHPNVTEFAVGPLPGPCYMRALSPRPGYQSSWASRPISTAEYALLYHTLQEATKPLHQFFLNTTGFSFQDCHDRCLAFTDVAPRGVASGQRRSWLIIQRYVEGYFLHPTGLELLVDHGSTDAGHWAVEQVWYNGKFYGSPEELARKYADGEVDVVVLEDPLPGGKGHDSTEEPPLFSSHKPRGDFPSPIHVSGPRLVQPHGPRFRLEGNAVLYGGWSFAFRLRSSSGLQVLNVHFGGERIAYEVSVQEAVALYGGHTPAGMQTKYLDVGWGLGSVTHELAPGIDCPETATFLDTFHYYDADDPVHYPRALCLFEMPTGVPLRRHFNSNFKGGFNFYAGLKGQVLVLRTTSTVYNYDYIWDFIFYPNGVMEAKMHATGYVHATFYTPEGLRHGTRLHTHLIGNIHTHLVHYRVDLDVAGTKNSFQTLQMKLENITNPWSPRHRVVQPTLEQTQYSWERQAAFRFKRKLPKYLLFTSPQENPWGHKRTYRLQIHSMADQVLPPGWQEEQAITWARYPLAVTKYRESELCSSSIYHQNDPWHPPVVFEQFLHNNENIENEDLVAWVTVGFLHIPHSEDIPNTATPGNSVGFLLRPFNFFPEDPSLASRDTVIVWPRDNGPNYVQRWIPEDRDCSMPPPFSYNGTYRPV
Protocol: (§1) The compounds according to the present technology were evaluated in terms of activity on recombinant human VAP-1 (R&D systems) by measuring the level of hydrogen peroxide in horseradish peroxidase (HRP)-coupled reaction using Amplex Red Hydrogen Peroxide Assay Kit (Molecular Probes, Invitrogen, USA). The experiment was carried out at room temperature using benzylamine as a substrate. In the HRP-coupled reaction, hydrogen peroxide oxidation of 10-acetyl-3,7-dihydroxyphenoxazine (Amplex Red reagent) produces resorufin, which is a highly fluorescent compound. Briefly, the test compound was dissolved in dimethyl sulfoxide (DMSO) at a concentration of 20 mM. The dose-response assessment was made by 1:3 serial dilution in DMSO, thereby creating an 8 point curve. The concentration of the upper part was controlled according to the efficacy of the compounds, followed by dilution with a reaction buffer solution to obtain a final DMSO concentration less than 1%. To each well of a 96 black well plate, human VAP-1 purified in 50 mM sodium phosphate buffer solution (pH7.4) was added. The test compounds dissolved in DMSO were incubated with the human VAP-1 enzymes at 37° C. for 30 minutes. After 30-minute incubation, each well is added with a reaction mixture containing 200 uM Amplex Red reagent prepared from 50 mM sodium phosphate buffer solution (pH 7.4), 1 mM benzylamine, and 1 U/mL HRP. Fluorescence intensity was measured at several time points during 1-2 hours using a microplate reader (Flexstation3, Molecular Devices) under the wavelength condition exciting at 544 nm and reading the emission at 590 nm. The inhibitory effect of the compounds was measured as a decrease (%) in the signal rate as compared to the control group without any inhibitor (only diluted DMSO). Data was fixed to a logistic model with four variables and IC50 value was calculated using GraphPad Prism program.
(§2) In addition, the compounds according to the present technology were evaluated in terms of activity on a recombinant human MAO-A (monoamine oxidase-A, Sigma-Aldrich) and a recombinant human MAO-B (monoamine oxidase-B, Sigma-Aldrich) by using as substrates, 0.5 mM tyramine and 1 mM benzylamine, respectively, with a method similar to the activity evaluation method for recombinant human VAP-1. The compounds according to the present technology were also evaluated in terms of activity on a recombinant human DAO (diamine oxidase, R&D systems) by using as a substrate 1 mM putrescine with a method similar to the activity evaluation method for recombinant human VAP-1.

[2] = molecular target: T2, recombinant human MAO-B (monoamine oxidase-B) (Homo sapiens, UniProt P27338); assay: Activity on recombinant human MAO-B, Amplex Red method, 1 mM benzylamine substrate; settings: 1 mM benzylamine
T2 construct: purchased Sigma-Aldrich
T2 sequence (P27338 1-520): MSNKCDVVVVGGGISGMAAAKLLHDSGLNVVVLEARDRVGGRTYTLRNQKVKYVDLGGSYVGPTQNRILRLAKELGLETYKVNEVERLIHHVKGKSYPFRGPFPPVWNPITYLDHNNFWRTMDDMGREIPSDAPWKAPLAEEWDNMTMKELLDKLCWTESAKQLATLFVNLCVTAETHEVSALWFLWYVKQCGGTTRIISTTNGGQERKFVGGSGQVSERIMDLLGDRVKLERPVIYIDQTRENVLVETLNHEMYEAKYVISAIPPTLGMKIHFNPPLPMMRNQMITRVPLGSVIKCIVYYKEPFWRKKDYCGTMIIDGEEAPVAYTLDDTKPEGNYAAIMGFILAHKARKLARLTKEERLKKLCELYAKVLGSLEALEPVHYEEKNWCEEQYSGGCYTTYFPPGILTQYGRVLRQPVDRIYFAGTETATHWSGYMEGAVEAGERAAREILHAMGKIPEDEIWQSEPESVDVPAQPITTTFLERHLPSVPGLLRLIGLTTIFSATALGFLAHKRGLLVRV
Protocol: as §1, §2

recombinant human VAP-1 = molecular target: T3, recombinant human VAP-1 (Homo sapiens, UniProt Q16853); assay: Activity on recombinant human VAP-1, Amplex Red HRP-coupled hydrogen peroxide assay, benzylamine substrate; settings: recombinant human VAP-1, benzylamine substrate, read-out: Inhibitory Activity (IC50, nM) human VAP-1
T3 construct: purchased R&D systems
T3 sequence (Q16853 1-763): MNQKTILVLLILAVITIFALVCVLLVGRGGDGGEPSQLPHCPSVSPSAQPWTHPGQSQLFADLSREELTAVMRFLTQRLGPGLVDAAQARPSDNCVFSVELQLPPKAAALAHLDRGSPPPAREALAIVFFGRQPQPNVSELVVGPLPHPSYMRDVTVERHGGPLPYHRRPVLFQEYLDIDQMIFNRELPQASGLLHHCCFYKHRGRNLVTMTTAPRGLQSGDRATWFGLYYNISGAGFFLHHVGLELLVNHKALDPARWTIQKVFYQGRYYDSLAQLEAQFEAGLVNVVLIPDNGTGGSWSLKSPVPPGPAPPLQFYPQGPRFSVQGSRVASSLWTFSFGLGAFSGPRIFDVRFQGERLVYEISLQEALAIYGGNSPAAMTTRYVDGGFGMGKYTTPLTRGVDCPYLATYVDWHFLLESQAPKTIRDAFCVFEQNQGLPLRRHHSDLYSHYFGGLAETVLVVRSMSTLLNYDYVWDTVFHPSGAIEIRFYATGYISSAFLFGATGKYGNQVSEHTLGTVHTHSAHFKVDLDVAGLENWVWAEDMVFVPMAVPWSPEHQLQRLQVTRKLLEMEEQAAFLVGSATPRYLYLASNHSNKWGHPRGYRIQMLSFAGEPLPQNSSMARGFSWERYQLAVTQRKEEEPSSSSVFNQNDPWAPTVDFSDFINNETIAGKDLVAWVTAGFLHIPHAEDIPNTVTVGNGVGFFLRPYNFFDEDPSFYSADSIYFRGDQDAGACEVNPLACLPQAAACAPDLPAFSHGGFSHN
Protocol: as §1

[3] = 1 mM putrescine, * = between 10 and 100 nM, ** = between 300 and 1000 nM

Compound	IC50 [1, 3] [nM]	IC50 (recombinant human VAP-1; 30 min preincubation at 37° C.) [nM]	Inhibitory Activity (IC50, nM) DAO [1, 3]	Inhibitory Activity (IC50, nM) MAO-B [2]	IC50 ([1]; 1 mM putrescine substrate) [nM]	IC50 (recombinant human VAP-1) [nM]	other results
NC/C(=C/F)Cn1ncn(-c2cc(F)c(Br)c(F)c2)c1=O [Example 19, 2-[(2Z)-2-(aminomethyl)-3-fluoroprop-2-en-1-yl]-4-(4-bromo-3,5-difluorophenyl)-2,4-dihydro-3H-1,2,4-triazol-3-one]	13	3.3					IC50 ([2]; read-out: Inhibitory Activity (IC50, nM) MAO-B): 4.4 nM
Cc1c(-c2ccc(N3CCOCC3)nc2)cccc1-n1cnn(C/C(=C/F)CN)c1=O [Example 110, 2-[(2E)-2-(aminomethyl)-3-fluoroprop-2-en-1-yl]-4-{2-methyl-3-[6-(morpholin-4-yl)pyridin-3-yl]phenyl}-2,4-dihydro-3H-1,2,4-triazol-3-one]		4.2	no inhibitory	no inhibitory			
Cc1c(-c2ccc3c(c2)OCO3)cccc1-n1cnn(C/C(=C/F)CN)c1=O [Example 111, 2-[(2E)-2-(aminomethyl)-3-fluoroprop-2-en-1-yl]-4-[3-(1,3-benzodioxol-5-yl)-2-methylphenyl]-2,4-dihydro-3H-1,2,4-triazol-3-one]		2.8	no inhibitory	no inhibitory			
Cc1c(-c2ccc3c(c2)OCCO3)cccc1-n1cnn(C/C(=C/F)CN)c1=O [Example 112, 2-[(2E)-2-(aminomethyl)-3-fluoroprop-2-en-1-yl]-4-[3-(2,3-dihydro-1,4-benzodioxin-6-yl)-2-methylphenyl]-2,4-dihydro-3H-1,2,4-triazol-3-one]		2.5	no inhibitory	no inhibitory			
Cc1cc(-c2ccc(-c3nnc[nH]3)cc2)cnc1-n1cnn(C/C(=C\F)CN)c1=O [Example 135, 2-[(2Z)-2-(aminomethyl)-3-fluoroprop-2-en-1-yl]-4-{3-methyl-5-[4-(4H-1,2,4-triazol-3-yl)phenyl]pyridin-2-yl}-2,4-dihydro-3H-1,2,4-triazol-3-one]	520	3.2					
Cc1cc(-c2ccc(-c3nnc[nH]3)cc2)cnc1-n1cnn(C/C(=C/F)CN)c1=O [Example 136, 2-[(2E)-2-(aminomethyl)-3-fluoroprop-2-en-1-yl]-4-{3-methyl-5-[4-(4H-1,2,4-triazol-3-yl)phenyl]pyridin-2-yl}-2,4-dihydro-3H-1,2,4-triazol-3-one]	6100	0.62					
Cc1cc(-c2cccc(-c3nnn[nH]3)c2)cnc1-n1cnn(C/C(=C/F)CN)c1=O [Example 144, 2-[(2E)-2-(aminomethyl)-3-fluoroprop-2-en-1-yl]-4-{3-methyl-5-[3-(1H-tetrazol-5-yl)phenyl]pyridin-2-yl}-2,4-dihydro-3H-1,2,4-triazol-3-one]	1400	3.3					
NC/C(=C\F)Cn1ncn(-c2ncc(-c3cccc(-c4nnn[nH]4)c3)s2)c1=O [Example 230, 2-[(2E)-2-(aminomethyl)-3-fluoroprop-2-en-1-yl]-4-{5-[3-(1H-tetrazol-5-yl)phenyl]-1,3-thiazol-2-yl}-2,4-dihydro-3H-1,2,4-triazol-3-one]					2.7	0.53	
CC(=O)Nc1cc(-c2cnc(-n3cnn(C/C(=C/F)CN)c3=O)s2)ccn1 [Example 231, N-[4-(2-{1-[(2E)-2-(aminomethyl)-3-fluoroprop-2-en-1-yl]-5-oxo-1,5-dihydro-4H-1,2,4-triazol-4-yl}-1,3-thiazol-5-yl)pyridin-2-yl]acetamide]					0.086	0.94	
NC/C(=C\F)Cn1ncn(-c2ncc(-c3ccc4c(c3)NC(=O)C4)s2)c1=O [Example 233, 6-(2-{1-[(2E)-2-(aminomethyl)-3-fluoroprop-2-en-1-yl]-5-oxo-1,5-dihydro-4H-1,2,4-triazol-4-yl}-1,3-thiazol-5-yl)-1,3-dihydro-2H-indol-2-one]					1.2	1.7	
